Test results: article PMC10974284, “Discovery of Novel 4-Hydroxyquinazoline Derivatives: In Silico, In Vivo and In Vitro Studies Using Primary PARPi-Resistant Cell Lines” (Molecules, 2024)
Read-outs that look alike come from different tables or passages of the source.

Key:
HCT-15 cell lines = experiment: MTT cytotoxicity assay, HCT-15; type: cell-based, human; settings: for IC50 / inhibition at 50 µM: Homo sapiens; for IC50: read-out: IC50 HCT-15; for inhibition at 50 µM: read-out: Inhibition rate (%) HCT-15
Protocol: (§1) After treatment with target compounds at the different concentrations, MTT was added and the cells were incubated for another 4 h. The IC50 values of the selected compounds were evaluated by the same method. The cells were treated with compounds at different concentrations. The OD values were detected using a microplate reader at 570 nm.

HCC1937 cell lines = experiment: MTT cytotoxicity assay, HCC1937; type: cell-based, human; settings: for IC50 / inhibition at 50 µM: Homo sapiens; for IC50: read-out: IC50 HCC1937; for inhibition at 50 µM: read-out: Inhibition rate (%) HCC1937
Protocol: as §1

[1] = HCT-15, 72 h (3-Days) drug exposure, MTT
[2] = HCC1937, 72 h (3-Days) drug exposure, MTT

Compound O=C(Nc1cccc(Br)c1)N1CCN(Cc2nc3ccccc3c(=O)[nH]2)CC1 [A8, N-(3-bromophenyl)-4-((4-oxo-3,4-dihydroquinazolin-2-yl)methyl)piperazine-1-carboxamide] has an IC50 (HCT-15 cell lines; [1]) of 27.7 ± 2.56 µM, a melting point of 194.2 to 196.3 °C and an IC50 (HCC1937 cell lines; [2]) of 47.4 ± 2.96 µM.

Cc1ccc(Cl)cc1NC(=O)N1C2CC1CN(Cc1nc3cc(F)c(F)cc3c(=O)[nH]1)C2 [C5, N-(5-chloro-2-methylphenyl)-3-((6,7-difluoro-4-oxo-3,4-dihydroquinazolin-2-yl)methyl)-3,6-diazabicyclo[3.1.1]heptane-6-carboxamide] gave an IC50 (HCT-15 cell lines; HCT-15, 72 h) of 29.6 ± 2.16 µM, a melting point of 194.4 to 195.8 °C and an IC50 (HCC1937 cell lines; HCC1937, 72 h) of 55 ± 4.28 µM.

For Cc1ccccc1NC(=O)N1CCN(Cc2nc3ccccc3c(=O)[nH]2)CC1 [A10, 4-((4-oxo-3,4-dihydroquinazolin-2-yl)methyl)-N-(o-tolyl)piperazine-1-carboxamide], the IC50 (HCT-15 cell lines; [1]) was 15.9 ± 0.85 µM, the melting point was 199.9 to 201.6 °C and the IC50 (HCC1937 cell lines; [2]) was 14.7 ± 1.03 µM.

COC(=O)c1ccccc1N [compound 1] showed an inhibition at 50 µM (HCT-15 cell lines; HCT-15, 72 h) of 13.7% and an inhibition at 50 µM (HCC1937 cell lines; HCC1937, 72 h) of 12.7%.

Compound Cc1ccc(NC(=O)N2CCN(Cc3nc4ccccc4c(=O)[nH]3)CC2)cc1C [A37, N-(3,4-dimethylphenyl)-4-((4-oxo-3,4-dihydroquinazolin-2-yl)methyl)piperazine-1-carboxamide] has an IC50 (HCT-15 cell lines; [1]) of 22.5 ± 1.49 µM, a melting point of 194.4 to 196.1 °C and an IC50 (HCC1937 cell lines; [2]) of 46.4 ± 2.96 µM.

Work on O=C(Nc1ccccc1C(F)(F)F)N1CCN(Cc2nc3ccccc3c(=O)[nH]2)CC1 [A13, 4-((4-oxo-3,4-dihydroquinazolin-2-yl)methyl)-N-(2-(trifluoromethyl)phenyl) piperazine-1-carboxamide] yielded an IC50 (HCT-15 cell lines; [1]) of 20.2 ± 0.78 µM, a melting point of 200.1 to 201.2 °C and an IC50 (HCC1937 cell lines; [2]) of over 50 µM.

O=C(Nc1cccc(C(F)(F)F)c1)N1CCN(Cc2nc3ccccc3c(=O)[nH]2)CC1 [A14, 4-((4-oxo-3,4-dihydroquinazolin-2-yl)methyl)-N-(3-(trifluoromethyl)phenyl)piperazine-1-carboxamide] showed an IC50 (HCT-15 cell lines; [1]) of 20 ± 1.15 µM, a melting point of 197.8 to 200.3 °C and an IC50 (HCC1937 cell lines; [2]) of 17.7 ± 0.77 µM.

Compound O=C(Nc1cccc(F)c1F)N1CCN(Cc2nc3ccccc3c(=O)[nH]2)CC1 [A19, N-(2,3-difluorophenyl)-4-((4-oxo-3,4-dihydroquinazolin-2-yl)methyl)piperazine-1-carboxamide] has an IC50 (HCT-15 cell lines; [1]) of 19.1 ± 0.59 µM, a melting point of 188.2 to 189.9 °C and an IC50 (HCC1937 cell lines; [2]) of over 50 µM.

For Cc1cc(F)ccc1NC(=O)N1CCN(Cc2nc3ccccc3c(=O)[nH]2)CC1 [A29, N-(4-fluoro-2-methylphenyl)-4-((4-oxo-3,4-dihydroquinazolin-2-yl)methyl)piperazine-1-carboxamide], the IC50 (HCT-15 cell lines; [1]) was 29.8 ± 1.57 µM, the melting point was 197.6 to 200.1 °C and the IC50 (HCC1937 cell lines; [2]) was over 50 µM.

O=C(Nc1ccc(C(F)(F)F)cc1F)N1CCN(Cc2nc3ccccc3c(=O)[nH]2)CC1 [A24, N-(2-fluoro-4-(trifluoromethyl)phenyl)-4-((4-oxo-3,4-dihydroquinazolin-2-yl)methyl)piperazine-1-carboxamide] showed an IC50 (HCT-15 cell lines; [1]) of 22.8 ± 1.82 µM, a melting point of 202.3 to 203.9 °C and an IC50 (HCC1937 cell lines; [2]) of 44.1 ± 2.19 µM.

In the case of Cc1ccc(-c2cc(C(F)(F)F)nn2-c2ccc(S(N)(=O)=O)cc2)cc1 [compound 54], the “Inhibition rate (%) HCT-15” value (HCT-15 cell lines; 50 μM, 72 h, MTT) is reported as 33.5% and the “Inhibition rate (%) HCC1937” value (HCC1937 cell lines; 50 μM, 72 h, MTT) is reported as 33.1%.

For Cc1ccc(Cl)cc1NC(=O)N1CCCN(Cc2nc3ccccc3c(=O)[nH]2)C1 [B7, N-(5-chloro-2-methylphenyl)-3-((4-oxo-3,4-dihydroquinazolin-2-yl)methyl)tetrahydropyrimidine-1(2H)-carboxamide], the IC50 (HCT-15 cell lines; [1]) was 13.7 ± 1.21 µM, the melting point was 197.3 to 198.7 °C and the IC50 (HCC1937 cell lines; [2]) was 57.9 ± 3.33 µM.

With Cc1cccc(NC(=O)N2CCN(Cc3nc4ccccc4c(=O)[nH]3)CC2)c1 [A11, 4-((4-oxo-3,4-dihydroquinazolin-2-yl)methyl)-N-(m-tolyl)piperazine-1-carboxamide] the IC50 (HCT-15 cell lines; [1]) was 25.6 ± 1.17 µM, the melting point was 197.8 to 200.2 °C and the IC50 (HCC1937 cell lines; [2]) was over 50 µM.

In the case of O=C(Nc1cc(F)cc(F)c1)N1CCN(Cc2nc3ccccc3c(=O)[nH]2)CC1 [A34, N-(3,5-difluorophenyl)-4-((4-oxo-3,4-dihydroquinazolin-2-yl)methyl)piperazine-1-carboxamide], the IC50 (HCT-15 cell lines; [1]) is reported as 47.2 ± 3.35 µM, the melting point is reported as 199.8 to 200.2 °C and the IC50 (HCC1937 cell lines; [2]) is reported as over 50 µM.

For O=C(Nc1cc(C(F)(F)F)ccc1Cl)N1CCN(Cc2nc3ccccc3c(=O)[nH]2)CC1 [A26, N-(2-chloro-5-(trifluoromethyl)phenyl)-4-((4-oxo-3,4-dihydroquinazolin-2-yl)methyl)piperazine-1-carboxamide], the IC50 (HCT-15 cell lines; [1]) was 37.3 ± 2.76 µM, the melting point was 191.2 to 193.9 °C and the IC50 (HCC1937 cell lines; [2]) was over 50 µM.

Compound COc1ccccc1NC(=O)N1CCN(Cc2nc3ccccc3c(=O)[nH]2)CC1 [A16, N-(2-methoxyphenyl)-4-((4-oxo-3,4-dihydroquinazolin-2-yl)methyl)piperazine-1-carboxamide] has an IC50 (HCT-15 cell lines; [1]) of 30.7 ± 2.13 µM, a melting point of 188.5 to 190.7 °C and an IC50 (HCC1937 cell lines; [2]) of over 50 µM.

O=C(Nc1ccccc1Cl)N1CCN(Cc2nc3ccccc3c(=O)[nH]2)CC1 [A4, N-(2-chlorophenyl)-4-((4-oxo-3,4-dihydroquinazolin-2-yl)methyl)piperazine-1-carboxamide] showed an IC50 (HCT-15 cell lines; [1]) of 19.1 ± 1.12 µM, a melting point of 197.9 to 199.6 °C and an IC50 (HCC1937 cell lines; [2]) of 14.7 ± 1.67 µM.

Cc1ccc(Cl)cc1NC(=O)N1C[C@H]2CC[C@@H](C1)N2Cc1nc2ccccc2c(=O)[nH]1 [B5, (1R,5S)-N-(5-chloro-2-methylphenyl)-8-((4-oxo-3,4-dihydroquinazolin-2-yl)methyl)-3,8-diazabicyclo[3.2.1]octane-3-carboxamide] showed an IC50 (HCT-15 cell lines; HCT-15, 72 h) of 11 ± 2.4 µM, a melting point of 189.5 to 191.7 °C and an IC50 (HCC1937 cell lines; HCC1937, 72 h) of 9.61 ± 1.35 µM.

O=C(Nc1ccccc1Br)N1CCN(Cc2nc3ccccc3c(=O)[nH]2)CC1 [A7, N-(2-bromophenyl)-4-((4-oxo-3,4-dihydroquinazolin-2-yl)methyl)piperazine-1-carboxamide] gave an IC50 (HCT-15 cell lines; [1]) of 29.6 ± 1.37 µM, a melting point of 195.1 to 196.7 °C and an IC50 (HCC1937 cell lines; [2]) of 40.3 ± 3.32 µM.

With Cc1ccc(Cl)cc1NC(=O)N1C2CC1CN(Cc1nc3cc(F)ccc3c(=O)[nH]1)C2 [C1, N-(5-chloro-2-methylphenyl)-3-((7-fluoro-4-oxo-3,4-dihydroquinazolin-2-yl)methyl)-3,6-diazabicyclo[3.1.1]heptane-6-carboxamide] the IC50 (HCT-15 cell lines; HCT-15, 72 h) was 24.1 ± 2.25 µM, the melting point was 193.2 to 195.1 °C and the IC50 (HCC1937 cell lines; HCC1937, 72 h) was 9.22 ± 1.19 µM.

O=c1[nH]c(CCl)nc2ccccc12 [compound 2] showed an inhibition at 50 µM (HCT-15 cell lines; HCT-15, 50 μM, 72 h, MTT) of 31.9% and an inhibition at 50 µM (HCC1937 cell lines; HCC1937, 50 μM, 72 h, MTT) of 10.3%.

In the case of O=c1[nH]c(=O)n([C@H]2C[C@H](O)[C@@H](CO)O2)cc1/C=C/Br [compound 33], the “Inhibition rate (%) HCT-15” value (HCT-15 cell lines; 50 μM, 72 h, MTT) is reported as 28.5% and the “Inhibition rate (%) HCC1937” value (HCC1937 cell lines; 50 μM, 72 h, MTT) is reported as 17.3%.

CC(C)(C)OC(=O)N1CCN(Cc2nc3ccccc3c(=O)[nH]2)CC1 [compound 3] gave an inhibition at 50 µM (HCT-15 cell lines; HCT-15, 50 μM, 72 h, MTT) of 52.3% and an inhibition at 50 µM (HCC1937 cell lines; HCC1937, 50 μM, 72 h, MTT) of 19.5%.

With C[C@H](CCC(=O)O)[C@H]1CC[C@H]2[C@@H]3C(=O)C[C@@H]4CC(=O)CC[C@]4(C)[C@H]3CC(=O)[C@]12C [compound 35] the “Inhibition rate (%) HCT-15” value (HCT-15 cell lines; 50 μM, 72 h, MTT) was 12.3% and the “Inhibition rate (%) HCC1937” value (HCC1937 cell lines; 50 μM, 72 h, MTT) was 21.4%.

O=c1[nH]c(CN2CCNCC2)nc2ccccc12 [compound 4] gave an inhibition at 50 µM (HCT-15 cell lines; HCT-15, 50 μM, 72 h, MTT) of 48.9% and an inhibition at 50 µM (HCC1937 cell lines; HCC1937, 50 μM, 72 h, MTT) of 16.5%.

In the case of Oc1ccc(N2CCNCC2)cc1 [compound 23], the “Inhibition rate (%) HCT-15” value (HCT-15 cell lines; 50 μM, 72 h, MTT) is reported as 41.9% and the “Inhibition rate (%) HCC1937” value (HCC1937 cell lines; 50 μM, 72 h, MTT) is reported as 9.2%.
